# Data: PubChem BioAssay AID256 (DTP/NCI, 2004)
# Several values for one entry are separate records, joined by “and”; a condition that tells them apart may be missing. Identical values can stand only once. Inconclusive results and toxic doses are left out.
# Tested on: CD2F1 mice, L1210 leukemia ip, survival T/C
# Assay: NCI In Vivo Anticancer Drug Screen. Data for tumor model L1210 Leukemia (intraperitoneal) in CD2F1 (CDF1) mice
# Details: higher = longer survival
# Procedure, shortened: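 Activity against a transplanted murine tumor was judged by comparing the compound group with a vehicle group. The outcome in the treated animals was divided by that in the controls.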
# [1] = endpoint: mean survival time, dose: 100.0 mg/kg/injection, schedule: Q01DX009 (ip), vehicle: saline with Tween-80
# [2] = endpoint: mean survival time, dose: 200.0 mg/kg/injection, schedule: Q01DX009 (ip), vehicle: saline with Tween-80
# [3] = endpoint: mean survival time, dose: 400.0 mg/kg/injection, schedule: Q01DX009 (ip), vehicle: saline with Tween-80
compound,measurement,setting,value
c1ccc(C2CC([P+](c3ccccc3)(c3ccccc3)c3ccccc3)=NN2CC[P+](c2ccccc2)(c2ccccc2)c2ccccc2)cc1 (stereo not given),T/C,"endpoint: mean survival time, dose: 1.56 mg/kg/injection, schedule: Q04DX003 (ip), vehicle: saline with Tween-80",101 % of control
same,T/C,"endpoint: mean survival time, dose: 3.13 mg/kg/injection, schedule: Q04DX003 (ip), vehicle: saline with Tween-80",96 % of control
same,T/C,"endpoint: mean survival time, dose: 6.25 mg/kg/injection, schedule: Q04DX003 (ip), vehicle: saline with Tween-80",93 % of control
CC[NH-].[Cl][Pt+2][Cl].[NH2-],T/C,"endpoint: mean survival time, dose: 1.56 mg/kg/injection, schedule: Q04DX003 (ip), vehicle: water",118 % of control
same,T/C,"endpoint: mean survival time, dose: 3.13 mg/kg/injection, schedule: Q04DX003 (ip), vehicle: distilled water + Tween-80",119 % of control
same,T/C,"endpoint: mean survival time, dose: 6.25 mg/kg/injection, schedule: Q04DX003 (ip), vehicle: water",124 % of control
same,T/C,"endpoint: mean survival time, dose: 25.0 mg/kg/injection, schedule: Q04DX003 (ip), vehicle: distilled water + Tween-80",98 % of control
CC(C)OC(=O)C12Oc3ccc(-c4ccc5c(c4O)C(O)=C4C(=O)CC(C)C(O)C4(C(=O)OC(C)C)O5)c(O)c3C(O)=C1C(=O)CC(C)C2O (stereo not given),T/C,"endpoint: mean survival time, dose: 1.25 mg/kg/injection, schedule: Q01DX009 (ip), vehicle: saline with Tween-80",102 % of control
same,T/C,"endpoint: mean survival time, dose: 2.5 mg/kg/injection, schedule: Q01DX009 (ip), vehicle: saline with Tween-80",95 % of control
same,T/C,"endpoint: mean survival time, dose: 5.0 mg/kg/injection, schedule: Q01DX009 (ip), vehicle: saline with Tween-80",98 % of control
O=C(O)CCC1NCCCO1 (stereo not given),T/C,"endpoint: mean survival time, dose: 100.0 mg/kg/injection, schedule: Q01DX009 (ip), vehicle: saline",101 % of control
same,T/C,"endpoint: mean survival time, dose: 100.0 mg/kg/injection, schedule: Q04DX003 (ip), vehicle: saline",88 % of control
same,T/C,"endpoint: mean survival time, dose: 200.0 mg/kg/injection, schedule: Q01DX009 (ip), vehicle: saline",95 % of control
same,T/C,"endpoint: mean survival time, dose: 400.0 mg/kg/injection, schedule: Q01DX009 (ip), vehicle: saline",95 % of control
same,T/C,"endpoint: mean survival time, dose: 400.0 mg/kg/injection, schedule: Q04DX003 (ip), vehicle: saline",95 % of control
CCC(=O)c1cccc([N+](=O)[O-])c1,T/C,"endpoint: mean survival time, dose: 100.0 mg/kg/injection, schedule: Q01DX001 (ip), vehicle: saline with Tween-80",100 % of control
same,T/C,[1],96 % of control
same,T/C,"endpoint: mean survival time, dose: 100.0 mg/kg/injection, schedule: Q04DX003 (ip), vehicle: saline with Tween-80",102 % of control
same,T/C,"endpoint: mean survival time, dose: 200.0 mg/kg/injection, schedule: Q01DX001 (ip), vehicle: saline with Tween-80",104 % of control
same,T/C,[2],97 % of control
same,T/C,"endpoint: mean survival time, dose: 200.0 mg/kg/injection, schedule: Q04DX003 (ip), vehicle: saline with Tween-80",102 % of control
same,T/C,"endpoint: mean survival time, dose: 400.0 mg/kg/injection, schedule: Q01DX001 (ip), vehicle: saline with Tween-80",93 % of control
same,T/C,[3],97 % of control
same,T/C,"endpoint: mean survival time, dose: 400.0 mg/kg/injection, schedule: Q04DX003 (ip), vehicle: saline with Tween-80",98 % of control
O=C(CCCCCCC(=O)ON1C(=O)CCC1=O)ON1C(=O)CCC1=O,T/C,"endpoint: median survival time, dose: 25.0 mg/kg/injection, schedule: Q01DX009 (ip), vehicle: saline with Tween-80",102 % of control
same,T/C,"endpoint: median survival time, dose: 50.0 mg/kg/injection, schedule: Q01DX009 (ip), vehicle: saline with Tween-80",102 % of control
same,T/C,"endpoint: median survival time, dose: 100.0 mg/kg/injection, schedule: Q01DX009 (ip), vehicle: saline with Tween-80",103 % of control
same,T/C,"endpoint: median survival time, dose: 200.0 mg/kg/injection, schedule: Q01DX009 (ip), vehicle: saline with Tween-80",102 % of control
O=Cc1ccc(C=O)cc1,T/C,[1],104 % of control
same,T/C,[2],98 % of control
same,T/C,[3],96 % of control
Nc1ncnc2c1nc(N1CCCC1)n2C1OC(CO)C(O)C1O (stereo not given),T/C,"endpoint: mean survival time, dose: 12.5 mg/kg/injection, schedule: Q01DX005 (ip), vehicle: distilled water + Tween-80",104 % of control and 93 % of control
same,T/C,"endpoint: mean survival time, dose: 25.0 mg/kg/injection, schedule: Q01DX005 (ip), vehicle: distilled water + Tween-80",104 % of control and 98 % of control
same,T/C,"endpoint: mean survival time, dose: 50.0 mg/kg/injection, schedule: Q01DX005 (ip), vehicle: distilled water + Tween-80",102 % of control and 100 % of control
same,T/C,"endpoint: mean survival time, dose: 100.0 mg/kg/injection, schedule: Q01DX005 (ip), vehicle: distilled water + Tween-80",100 % of control and 90 % of control
same,T/C,"endpoint: mean survival time, dose: 200.0 mg/kg/injection, schedule: Q01DX005 (ip), vehicle: distilled water + Tween-80",105 % of control and 97 % of control
CC[C@@]1(OC(=O)C(N)CCC(=O)O)C(=O)OCc2c1cc1n(c2=O)Cc2cc3ccccc3nc2-1 (stereo not given in full),T/C,"endpoint: median survival time, dose: 6.85 mg/kg/injection, schedule: Q04DX002 (ip), vehicle: water",107 % of control and 108 % of control
same,T/C,"endpoint: median survival time, dose: 10.27 mg/kg/injection, schedule: Q04HX004 (iv), vehicle: water",120 % of control and 111 % of control
same,T/C,"endpoint: median survival time, dose: 13.69 mg/kg/injection, schedule: Q04DX002 (ip), vehicle: water",113 % of control
same,T/C,"endpoint: median survival time, dose: 27.39 mg/kg/injection, schedule: Q04DX002 (ip), vehicle: water",122 % of control
same,T/C,"endpoint: median survival time, dose: 41.08 mg/kg/injection, schedule: Q04HX004 (iv), vehicle: water",184 % of control and 197 % of control
same,T/C,"endpoint: median survival time, dose: 54.78 mg/kg/injection, schedule: Q04DX002 (ip), vehicle: water",154 % of control and 170 % of control
same,T/C,"endpoint: median survival time, dose: 54.78 mg/kg/injection, schedule: Q04HX004 (iv), vehicle: water",204 % of control and 211 % of control
same,T/C,"endpoint: median survival time, dose: 109.6 mg/kg/injection, schedule: Q04DX002 (ip), vehicle: water",208 % of control
Clc1ncc2cnccn12,T/C,[1],101 % of control
